Columns and labels:
Format in all cases: in vivo, albino rats
[1] = system: Pylorus ligated rats; experiment: Pylorus ligated ulcers; conditions: 4 hours after pylorus ligation
In short: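 Albino rats, fasted 48 h, dosed with test compound (25 mg/kg, or 50, 25, 15, 10 and 5 mg/kg) or ranitidine 50 mg/kg in 1% Tween 80 vehicle. Pylorus ligated under ether 1 h post-dose. Gastric contents collected 4 h later, centrifuged, and total acid titrated with 0.01N NaOH.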

[2] = system: gastric ulcers induced by aspirin, ethanol, stress and pylorus ligation; experiment: Antigastric ulcer screening by four different models (statements in words); conditions: summary statement
Source text: The compounds taken under study for antigastric ulcer screening by four different models were selected using experimental albino rats: • 1. Aspirin induced gastric ulceration • 2. Pylorus ligated gastric ulceration • 3. Ethanol induced gastric ulceration • 4. Stress induced gastric ulceration
The commercially available drug ranitidine (sigma), Omeprazole (sigma) and sucralfate (Merck) were used as reference standard in experimental models. The Tween-80 (SD fine chemicals) was used as vehicle for the administration of the drug, which is used as control.

[3] = system: acetyl salicylic acid induced gastric lesions; experiment: Acetyl salicylic acid (aspirin) induced gastric ulcer; parameters: Ulcer index Mean(SE): scale not given here; conditions: rats, aspirin 200 mg/kg
In short: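 Rats in groups of 6 were dosed orally once a day for five days with test compounds suspended in 1% Tween 80. A 1% Tween 80 control group and a ranitidine 50 mg/kg group were included. Aspirin at 200 mg/kg was given orally 30 min after each dose. After a 24 hour fast, the rats were killed by cervical dislocation. Stomachs were opened along the greater curvature, rinsed with lukewarm saline, examined under a dissecting microscope and scored for ulcer index.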

[4] = 5 mg/kg per orally daily for five days
[5] = 10 mg/kg per orally daily for five days
[6] = 15 mg/kg per orally daily for five days
[7] = 25 mg/kg per orally daily for five days
[8] = 50 mg/kg per orally daily for five days

## COC(=O)C1OC(Oc2cc3oc(-c4ccccc4)cc(=O)c3cc2OC)C(O)C(O)C1O (stereo not shown) [OA-5, 3,4,5-trihydroxy-6-(6-methoxy-4-oxo-2-phenyl-4-H-chromen-7-yoloxy) tetrahydro-pyran-2-carboxylicacid methyl ester]
[1]; 5 mg/kg
  Acidity Total mEg: 45.50 (±1.25) mEg
  Gastric content: 2.06 (±0.28)
  Inhibition %: 46.80%
  Ulcer index Mean(SE): 26.66 (±5.48)
  pH: 3.25 (±0.17)
[1]; 10 mg/kg
  Acidity Total mEg: 42.90 (±2.37) mEg
  Gastric content: 3.50 (±0.62)
  Inhibition %: 59.78%
  Ulcer index Mean(SE): 21.66 (±3.04)
  pH: 3.58 (±0.24)
[1]; 15 mg/kg
  Acidity Total mEg: 30.25 (±0.73) mEg
  Gastric content: 3.62 (±0.61)
  Inhibition %: 70.07%
  Ulcer index Mean(SE): 15.00 (±3.33)
  pH: 4.35 (±0.10)
[1]; 25 mg/kg
  Acidity Total mEg: 30.18 (±0.50) m Eg
  Gastric content: 2.10 (±0.34)
  Inhibition %: 75.07%
  Ulcer index Mean(SE): 12.49 (±3.74)
  pH: 5.62 (±0.19)
[1]; 50 mg/kg
  Acidity Total mEg: 32.66 (±0.62) m Eg
  Gastric content: 2.50 (±0.19)
  Inhibition %: 79.85%
  Ulcer index Mean(SE): 10.10 (±2.04)
  pH: 4.62 (±0.10)
[2]; listed as Oroxyloside methyl ester
  antiulcer activity (in words): excellent potent molecule
[2]; listed as oroxyloside methyl ester
  antiulcer activity (in words): potent activity
[3]; [4]
  Inhibition %: 18.75%
  Ulcer index Mean(SE): 36.66
[3]; [5]
  Inhibition %: 40.98%
  Ulcer index Mean(SE): 26.66
[3]; [6]
  Inhibition %: 40.98%
  Ulcer index Mean(SE): 26.66
[3]; [7]
  Inhibition %: 74.55%
  Ulcer index Mean(SE): 11.06
[3]; [8]
  Inhibition %: 77.84%
  Ulcer index Mean(SE): 10.00

Source: patent US7855200B2, “Method for treatment of gastric ulcers and ulcers induced by aspirin” (Council of Scientific and Industrial Research, priority 2006, dated 2010)
